According to patent publication US11795200B2, “Nano small peptide and its use in preparation of drugs for treating and preventing fundus vascular diseases” (FUTU Biotech Co., Ltd., priority 2021, dated 2023):
Non-standard residues stand in square brackets, D forms with d. Residues, ends and D or L forms follow the SMILES beside them. No end group written: not given here. *: point of attachment. Palmitoyl = CCCCCCCCCCCCCCCC(=O)*

Key:
[1] = DLS particle size and zeta potential of FH and FG nanoparticles; assay type: physicochemical; conditions: zeta sizer, 25° C.
Method: First, FG and FH nanoparticle solutions with a concentration of 20 μM were prepared as follows. 0.01 mmol of FG (or FH) was weighed and dissolved in 1 mL of DMSO solution, and then diluted into 5 folds to a concentration of 2 mM, thus obtaining mother solution A. 10 μL of mother solution A was quickly added to 1 mL of water, and the resulting solution was then vortexed for 30 s to obtain a nanoparticle solution. Second, samples were made. 10 ul of FG (or FH) solution was added dropwise onto a copper mesh for 5 min, and the excess solution was removed with filter paper. 10 μL of uranyl acetate stain was added dropwise for 5 min, and the excess stain was removed with filter paper. Washing with 10 μl of deionized water was carried out once. The samples were dried in vacuum overnight. Finally, transmission electron microscopy observations were performed on an HT-7700 transmission electron microscope (Hitachi, Tokyo, Japan). Scale bar was 200 nm.
The particle size and zeta potential of FH and FG nanoparticles were measured with a zeta sizer (Nano ZZ90, Malvern, UK) at 25° C.

OIR model mice = experiment: Evans blue leakage test, fundus vascular leakage; assay type: in vivo, mouse; conditions: for vascular leakage of the fundus: 2 nmol injected into the vitreous; for treatment effect on vascular leakage compared with anti-Sema4D: 2 nmol vs 1 μg BMA-12, intravitreal
[2] = tested on: primary mouse brain microvascular endothelial cells; experiment: sSema4D-induced endothelial cell migration (transwell experiment); assay type: cell-based; conditions: 24 h; for inhibition of endothelial cell migration compared with BMA-12: 20 μM vs BMA-12 2 μg/μL; for sSema4D-induced endothelial cell migration: 20 μM, sSema4D 1600 ng/mL
Method: The primary mouse brain microvascular endothelial cells were starved with 0.5% ECM for 4 to 6 h. The mouse brain microvascular endothelial cells were seeded in the upper layer of a 24-well transwell chamber ([…]). 1% ECM medium containing FH (20 μM), FG (20 μM), and Sema4D neutralizing antibody (BMA-12) (2 μg/μL) (the concentration of sSema4D in the medium is 1600 ng/mL) was added to the lower chamber, and an equal volume of DMSO was added as control. The cells were incubated in a 5% CO2 incubator at 37° C. for 24 h. 24 h later, the cells on the bottom of the chamber were fixed with 4% paraformaldehyde and stained with crystal violet, and the endothelial cells that penetrated to the bottom of the chamber were counted under a microscope.

[3] = tested on: mouse brain microvascular endothelial cells; experiment: sSema4D-induced endothelial cell leakage (transmembrane resistance); assay type: cell-based; conditions: 36 h; for effect on endothelial cell leakage compared with BMA-12: 20 μM vs BMA-12 2 μg/μL; for sSema4D-induced endothelial cell leakage: 20 μM, sSema4D 1600 ng/mL
Method: A layer of fibronectin was first applied to coat the upper layer of a 24-well transwell chamber (0.4 um) and incubated at room temperature for 1 h; after coating, the mouse brain microvascular endothelial cells were seeded, and cultured for 5 days until the cells were full, and then FH (20 μM), FG (20 μM), and Sema4D neutralizing antibody (BMA-12) (2 μg/μL) were added to the medium (the concentration of sSema4D in the medium was 1600 ng/mL), respectively. An equal volume of DMSO was added as a control, and ECM was used as a blank control. After incubation for 36 h, the resistance value was measured by a cell transmembrane resistance measuring instrument.

[4] = tested on: primary mouse brain microvascular pericytes; experiment: sSema4D-induced pericyte migration (transwell experiment); assay type: cell-based; conditions: 36 h; for sSema4D-induced pericyte migration: 20 μM, sSema4D 1600 ng/mL
Method: The primary mouse brain microvascular pericytes were starved with 0.5% PM for 4 to 6 h. The pericytes were seeded in the upper layer of a 24-well transwell chamber (8 μm). The medium containing FH (20 μM), FG (20 μM), and Sema4D neutralizing antibody (BMA-12) (2 μg/μL) (the concentration of sSema4D in the medium is 1600 ng/mL) was added to the lower chamber, and an equal volume of DMSO was added as control. The cells were incubated in a 5% CO2 incubator at 37° C. for 36 h. 36 h later, the cells on the bottom of the chamber were fixed with 4% paraformaldehyde and stained with crystal violet, and the pericytes that penetrated to the bottom of the chamber were counted under a microscope.

sSema4D = biological target: T1, sSema4D (Mus musculus, UniProt O09126); experiment: Reduction of sSema4D concentration in a simple medium system (ELISA); assay type: biochemical; design: the free Sema4D protein after enzyme cleavage of Sema4D; purchased R&D Systems; conditions: for sSema4D concentration: medium with 1600 ng/mL sSema4D, FH, FG 20 μM, BMA-12 2 μg/μL
T1 sequence (O09126 24-733 limits assumed): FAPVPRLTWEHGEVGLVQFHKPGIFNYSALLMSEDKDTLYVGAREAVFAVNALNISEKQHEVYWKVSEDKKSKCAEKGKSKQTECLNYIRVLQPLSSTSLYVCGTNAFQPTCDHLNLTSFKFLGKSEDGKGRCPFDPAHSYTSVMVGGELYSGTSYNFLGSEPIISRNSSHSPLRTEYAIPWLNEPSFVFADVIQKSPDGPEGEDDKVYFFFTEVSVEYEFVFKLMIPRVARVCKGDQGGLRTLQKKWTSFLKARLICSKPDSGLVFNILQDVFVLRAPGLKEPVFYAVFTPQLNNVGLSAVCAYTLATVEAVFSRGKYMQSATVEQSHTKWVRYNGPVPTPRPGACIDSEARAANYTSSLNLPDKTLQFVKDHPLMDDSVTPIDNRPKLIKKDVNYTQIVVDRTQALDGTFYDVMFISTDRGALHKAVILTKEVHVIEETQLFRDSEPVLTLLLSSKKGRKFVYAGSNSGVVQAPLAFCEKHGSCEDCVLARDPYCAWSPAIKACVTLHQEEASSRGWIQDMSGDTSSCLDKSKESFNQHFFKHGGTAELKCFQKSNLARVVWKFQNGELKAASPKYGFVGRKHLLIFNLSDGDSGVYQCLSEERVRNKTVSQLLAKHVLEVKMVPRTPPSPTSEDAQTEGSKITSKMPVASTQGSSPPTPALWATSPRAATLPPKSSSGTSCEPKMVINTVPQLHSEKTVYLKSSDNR
Method: The nano small peptides FH, FG, DMSO, and Sema4D neutralizing antibody (BMA-12) were added to the medium (the concentration of sSema4D in the medium was 1600 ng/mL) to ensure that the final concentration of FH and FG was 20 μM, and the final concentration of the Sema4D neutralizing antibody (BMA-12) (BMA-12, i.e., anti-Sema4D) was 2 μg/μL, an equal volume of DMSO was then added as a control, and culture plates were set still at 37° C. for 12, 24, 36, and 48 h, and the culture medium was collected, and the expression of Sema4D protein in the supernatant was detected using an ELISA kit (Shanghai Yuanmu Biotechnology Co., Ltd.).

charges (zeta potential) [1] | particle diameters [1] [nm] | sSema4D concentration (sSema4D; 24 h) | effect on sSema4D concentration, FH compared with FG (sSema4D; within the same action time, 20 μM) | Compound | vascular leakage of the fundus (OIR model mice) | treatment effect on vascular leakage compared with anti-Sema4D (OIR model mice) | inhibition of endothelial cell migration compared with BMA-12 [2] | sSema4D-induced endothelial cell migration [2] | effect on endothelial cell leakage compared with BMA-12 [3] | sSema4D-induced endothelial cell leakage [3] | inhibition of pericyte migration compared with BMA-12 ([4]; 20 μM vs BMA-12 2 μg/μL) | sSema4D-induced pericyte migration [4] | sSema4D concentration (sSema4D; 36 h)
+40.4 mV | 54.43±2.8 | can reduce the sSema4D concentration | better than that of FG | CCCCCCCCCCCCCCCC(=O)N[C@H](Cc1ccccc1)C(=O)N[C@@H](Cc1ccccc1)C(=O)N[C@H](C(=O)N[C@@H](CC(C)C)C(=O)N[C@@H](CCCCN)C(=O)N[C@@H](CCCCN)C(=O)N[C@@H](CCC(N)=O)C(=O)N[C@@H](CCCCN)C(=O)N[C@@H](CCCNC(=N)N)C(=O)N1CCC[C@H]1C(=O)N[C@@H](CCCNC(=N)N)C(=O)N[C@@H](Cc1c[nH]cn1)C(=O)O)C(C)C [FH] (Palmitoyl-[dF]FVLKKQKRPRH-OH) | can inhibit vascular leakage of the fundus | comparable to that of anti-Sema4D | more effective in inhibiting endothelial cell migration than Sema4D neutralizing antibody (BMA-12) | can significantly inhibit the sSema4D-induced endothelial cell migration | comparable to that of Sema4D neutralizing antibody (BMA-12) | can significantly inhibit sSema4D-induced endothelial cell leakage | more effective in inhibiting pericyte migration than Sema4D neutralizing antibody (BMA-12) | can significantly inhibit the sSema4D-induce pericyte migration | can still reduce the sSema4D concentration
+44.8 mV | 57.67±2.6 | can reduce the sSema4D concentration |  | Palmitoyl-FFVLKKNKAAKG [FG] | can inhibit vascular leakage of the fundus | comparable to that of anti-Sema4D | more effective in inhibiting endothelial cell migration than Sema4D neutralizing antibody (BMA-12) | can significantly inhibit the sSema4D-induced endothelial cell migration | comparable to that of Sema4D neutralizing antibody (BMA-12) | can significantly inhibit sSema4D-induced endothelial cell leakage |  | can significantly inhibit the sSema4D-induce pericyte migration | can still reduce the sSema4D concentration
